US10822349B2, “Macrocyclic purines for the treatment of viral infections” (JANSSEN SCIENCES IRELAND UNLIMITED COMPANY, priority 2012, dated 2020)

Key:
[1] = test system: interferon production in human PBMC; test: Interferon production in human PBMC, read out on HEK-ISRE-luc reporter cells; type: cell-based; details: Homo sapiens, PBMC, 24 h, lowest effective concentration, PBMC supernatant after overnight incubation transferred to HEK-ISRE-luc cells, read-out: PBMC HEK-ISRE-luc (LEC; μM)
Protocol: Activation of human TLR7 results in robust production of interferon by plasmacytoid dendritic cells present in human blood. The potential of compounds to induce interferon was evaluated by determination of interferon in the conditioned media from peripheral blood mononuclear cells (PBMC). The presence of interferon in the samples was determined, using an interferon reporter cell line stably expressing an interferon-stimulated responsive elements (ISRE)-luc reporter construct. The ISRE element with sequence GAAACTGAAACT (SEQ ID: 1) is highly responsive to the STAT1-STAT2-IRF9 transcription factor, which becomes activated upon binding of IFN-I to the IFN receptor. Briefly, PBMCs were prepared from buffy coats of at least two donors using a standard Ficoll centrifugation protocol. Isolated PBMCs were resuspended in RPMI medium supplemented with 10% human AB serum and 2×10^5 cells/well were dispensed into 384-well plates containing compounds (70 μL total volume). After overnight incubation of the PBMCs with the compounds, 10 μL of supernatant was transferred to 384-well plates containing 5×10^3 HEK-ISRE-luc cells/well in 30 μL (plated the day before). Following 24 hours of incubation, activation of the ISRE elements was measured by assaying luciferase activity using 40 μL/well Steady Lite Plus substrate (Perkin Elmer) and measured with ViewLux ultraHTS microplate imager (Perkin Elmer). The stimulating activity of each compound on the HEK-ISRE-luc cells was reported as LEC. The LEC in turn indicates the degree of ISRE activation on transfer of a defined amount of PBMC culture medium. Recombinant interferon alfa-2a (Roferon-A) was used as a standard control compound.

human TLR7 = biological target: T1, human TLR7 (Homo sapiens, UniProt Q9NYK1); test: TLR7 cellular reporter assay (HEK293 TLR7-NFκB-luc); type: cell-based; details: lowest effective concentration; HEK293 transiently transfected with TLR7 and NFκB-luc; 6 hours incubation
T1 construct: expressed in transfected cells; host or cells: HEK293
T1 sequence (Q9NYK1 27-1049): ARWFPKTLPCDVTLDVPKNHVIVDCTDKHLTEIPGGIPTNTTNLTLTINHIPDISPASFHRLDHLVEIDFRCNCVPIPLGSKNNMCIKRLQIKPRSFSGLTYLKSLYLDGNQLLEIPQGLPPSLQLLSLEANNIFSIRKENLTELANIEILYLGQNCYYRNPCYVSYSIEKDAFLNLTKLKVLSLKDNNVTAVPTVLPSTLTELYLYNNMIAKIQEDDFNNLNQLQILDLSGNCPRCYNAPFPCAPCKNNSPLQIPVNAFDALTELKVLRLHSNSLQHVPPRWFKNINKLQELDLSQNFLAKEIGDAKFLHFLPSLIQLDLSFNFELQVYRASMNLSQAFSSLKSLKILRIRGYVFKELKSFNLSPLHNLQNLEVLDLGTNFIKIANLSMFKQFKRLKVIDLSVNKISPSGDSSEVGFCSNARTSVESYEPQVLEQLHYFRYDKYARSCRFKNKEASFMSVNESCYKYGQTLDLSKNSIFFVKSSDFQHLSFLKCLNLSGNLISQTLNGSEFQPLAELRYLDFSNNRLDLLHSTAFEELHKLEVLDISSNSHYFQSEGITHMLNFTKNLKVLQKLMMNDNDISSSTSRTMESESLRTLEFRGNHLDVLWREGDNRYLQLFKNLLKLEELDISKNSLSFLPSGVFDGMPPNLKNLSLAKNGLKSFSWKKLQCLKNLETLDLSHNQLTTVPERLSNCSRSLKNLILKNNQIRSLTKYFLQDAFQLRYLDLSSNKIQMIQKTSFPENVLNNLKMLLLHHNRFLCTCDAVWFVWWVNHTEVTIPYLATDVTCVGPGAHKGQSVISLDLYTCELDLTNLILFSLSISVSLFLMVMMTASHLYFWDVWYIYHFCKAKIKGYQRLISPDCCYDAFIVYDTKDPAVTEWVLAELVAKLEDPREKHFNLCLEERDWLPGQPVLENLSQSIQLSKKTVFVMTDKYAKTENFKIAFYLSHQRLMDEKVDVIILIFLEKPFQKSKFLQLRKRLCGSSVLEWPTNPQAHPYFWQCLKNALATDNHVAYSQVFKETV
Protocol: The ability of compounds to activate human TLR7 and TLR8 was assessed in a cellular reporter assay using HEK293 cells transiently transfected with a TLR7 or TLR8 expression vector and NFκB-luc reporter construct. Briefly, HEK293 cells were grown in culture medium (DMEM supplemented with 10% FCS and 2 mM Glutamine). For transfection of cells in 10 cm dishes, cells were detached with Trypsin-EDTA, transfected with a mix of CMV-TLR7 or TLR8 plasmid (750 ng), NFκB-luc plasmid (375 ng) and a transfection reagent and incubated 48 hours at 37° C. in a humidified 5% CO2 atmosphere. Transfected cells were then detached with Trypsin-EDTA, washed in PBS and resuspended in medium to a density of 1.67×10^5 cells/mL. Thirty microliters of cells were then dispensed into each well in 384-well plates, where 10 μL of compound in 4% DMSO was already present. Following 6 hours incubation at 37° C., 5% CO2, the luciferase activity was determined by adding 15 μl of Steady Lite Plus substrate (Perkin Elmer) to each well and readout performed on a ViewLux ultraHTS microplate imager (Perkin Elmer). Dose response curves were generated from measurements performed in quadruplicates. Lowest effective concentrations (LEC) values, defined as the concentration that induces an effect which is at least two fold above the standard deviation of the assay, were determined for each compound.

`CC1CCOc2cccc(c2)Cn2c(O)nc3c(N)nc(nc32)OC1` (stereo not shown) [Compound 71] was tested, and the minimal effective concentration [1] was 0.04 µM and the “HEK293 TLR7-NFκB-luc (LEC; μM)” value (human TLR7) was 0.12 µM.

For `COc1c2cccc1OC/C=C\COc1nc(N)c3nc(O)n(c3n1)C2` [Compound 62], the minimal effective concentration [1] was 2.03 µM and the “HEK293 TLR7-NFκB-luc (LEC; μM)” value (human TLR7) was 7.26 µM.

`Nc1nc2nc3c1ncn3Cc1ncccc1OC/C=C/CCO2` [Compound 78] was tested, and the minimal effective concentration [1] was > 25 µM and the “HEK293 TLR7-NFκB-luc (LEC; μM)” value (human TLR7) was 9.68 µM.

For `Nc1nc2nc3c1nc(O)n3Cc1cccc(=O)n1CCCCN2` [Compound 35], the minimal effective concentration [1] was 0.41 µM and the “HEK293 TLR7-NFκB-luc (LEC; μM)” value (human TLR7) was 1.68 µM.

For `Nc1nc2nc3c1nc(O)n3Cc1cc(ccn1)OC/C=C/CCO2` [Compound 51], the minimal effective concentration [1] was 0.069 µM and the “HEK293 TLR7-NFκB-luc (LEC; μM)” value (human TLR7) was 0.74 µM.

`Nc1nc2nc3c1nc(O)n3Cc1ncccc1OC/C=C/CCO2` [Compound 44] was tested, and the minimal effective concentration [1] was 0.62 µM and the “HEK293 TLR7-NFκB-luc (LEC; μM)” value (human TLR7) was 5.77 µM.

`COc1ccc2cc1Cn1c(O)nc3c(N)nc(nc31)OCC/C=C\C2` [Compound 72] was tested, and the minimal effective concentration [1] was 0.0029 µM and the “HEK293 TLR7-NFκB-luc (LEC; μM)” value (human TLR7) was 0.018 µM.

In the case of `Nc1nc2nc3c1nc(O)n3Cc1cccc(c1)OC/C=C/CO2` [Compound 23], the minimal effective concentration [1] is reported as 0.012 µM and the “HEK293 TLR7-NFκB-luc (LEC; μM)” value (human TLR7) is reported as 0.043 µM.

With `Nc1nc2nc3c1nc(O)n3CCc1cccc(c1)OCCCCO2` [Compound 64] the minimal effective concentration [1] was 0.5 µM and the “HEK293 TLR7-NFκB-luc (LEC; μM)” value (human TLR7) was 1.49 µM.

With `COc1ccc2cc1Cn1c(O)nc3c(N)nc(nc31)OC/C=C\CO2` [Compound 74] the minimal effective concentration [1] was 0.044 µM and the “HEK293 TLR7-NFκB-luc (LEC; μM)” value (human TLR7) was 0.1 µM.

With `COc1c2cccc1OCCCCOc1nc(N)c3nc(O)n(c3n1)C2` [Compound 59] the minimal effective concentration [1] was 1.92 µM and the “HEK293 TLR7-NFκB-luc (LEC; μM)” value (human TLR7) was 4.41 µM.

With `Nc1nc2nc3c1nc(O)n3Cc1ccc(cc1)OC/C=C/CCCO2` [Compound 81] the minimal effective concentration [1] was 0.63 µM and the “HEK293 TLR7-NFκB-luc (LEC; μM)” value (human TLR7) was 4.59 µM.

With `COc1ccc2cc1Cn1c(O)nc3c(N)nc(nc31)OCC/C=C/C2` [Compound 73] the minimal effective concentration [1] was 0.01 µM and the “HEK293 TLR7-NFκB-luc (LEC; μM)” value (human TLR7) was 0.045 µM.

`Nc1nc2nc3c1nc(O)n3Cc1cccc(c1)OCC/C=C\CO2` [Compound 20] was tested, and the minimal effective concentration [1] was 0.15 µM and the “HEK293 TLR7-NFκB-luc (LEC; μM)” value (human TLR7) was 0.74 µM.

With `Nc1nc2nc3c1nc(O)n3Cc1cccc(c1)C/C=C/CCCn1ccnc1-2` [Compound 3] the minimal effective concentration [1] was 0.14 µM and the “HEK293 TLR7-NFκB-luc (LEC; μM)” value (human TLR7) was 1.05 µM.

With `COc1ccc2cc1CCCCCOc1nc(N)c3nc(O)n(c3n1)C2` [Compound 66] the minimal effective concentration [1] was 0.018 µM and the “HEK293 TLR7-NFκB-luc (LEC; μM)” value (human TLR7) was 0.032 µM.

`COc1ccc2cc1OCCCCOc1nc(N)c3nc(O)n(c3n1)C2` [Compound 56] was tested, and the minimal effective concentration [1] was 0.01 µM and the “HEK293 TLR7-NFκB-luc (LEC; μM)” value (human TLR7) was 0.056 µM.

`CN1CCOC(=O)Cc2cccc(c2)Cn2c(O)nc3c(N)nc1nc32` [Compound 85] was tested, and the minimal effective concentration [1] was 12.5 µM and the “HEK293 TLR7-NFκB-luc (LEC; μM)” value (human TLR7) was 0.33 µM.

With `Nc1nc2nc3c1nc(O)n3Cc1ccccc1C/C=C\CCO2` [Compound 48] the minimal effective concentration [1] was 2.04 µM and the “HEK293 TLR7-NFκB-luc (LEC; μM)” value (human TLR7) was 0.64 µM.

For `Nc1nc2nc3c1nc(O)n3Cc1cccc(c1)OCCOCCN2` [Compound 13], the minimal effective concentration [1] was 4.7 µM and the “HEK293 TLR7-NFκB-luc (LEC; μM)” value (human TLR7) was 14.69 µM.
